Earlier results, collected in patent US20250345512A1, “COMBINATION SODIUM-GLUCOSE COTRANSPORTER INHIBITOR (SGLTI) INSULIN THERAPY FOR GLYCEMIC CONTROL IN TYPE 1 DIABETES” (University of Virginia Patent Foundation, priority 2022, published 2025).

Legend:
T1D = details: versus placebo over 18 weeks; cited from earlier work
T1D adults = details: pooled analysis of 1575 T1D adults; cited from earlier work
T1D patients [1] = details: 200 mg and 400 mg; adults with T1D; cited from earlier work
T1D patients [2] = system: T1D patients; set-up: adverse effects, including DKA: reference not given here; details: cited from earlier work
[3] = 25 mg/day added to experimental AID; 9-14 h outpatient; cited from earlier work

Structure (SMILES): Cc1ccc([C@@H]2O[C@H](CO)[C@@H](O)[C@H](O)[C@H]2O)cc1Cc1ccc(-c2ccc(F)cc2)s1 [canagliflozin]
- indices of glycemic variability and treatment satisfaction (T1D): improved indices of glycemic variability and improvement in treatment satisfaction

Structure (SMILES): CCOc1ccc(Cc2cc([C@@H]3O[C@H](SC)[C@@H](O)[C@H](O)[C@H]3O)ccc2Cl)cc1 [sotagliflozin]
- short- and long-term renal hemodynamic changes (T1D adults): reductions in urine albumin:creatinine
- glycemic control and weight (T1D patients [1]): improved glycemic control and weight

Structure (SMILES): OC[C@H]1O[C@@H](c2ccc(Cl)c(Cc3ccc(O[C@H]4CCOC4)cc3)c2)[C@H](O)[C@@H](O)[C@@H]1O [empagliflozin]
- adverse effects (T1D patients [2]; 2.5 mg): indistinguishable from placebo
- adverse effects, including DKA (T1D patients [2]; 10 mg and 25 mg daily dose): two to three fold higher
- body weight, systolic blood pressure, and diastolic blood pressure (T1D patients [2]; 1707 T1D patients, 26 weeks of SGLT2i treatment): significant reductions
- hemoglobin A1c and hypoglycemia (T1D patients [2]; EASE trials): improvements in hemoglobin Ale without increase in hypoglycemia
- need for pre-meal carbohydrate counting [3]: reduce the need for pre-meal carbohydrate counting
